Source: ChEMBL document CHEMBL1201862, “PubChem BioAssay data set” (2004)
Active and inactive are the calls of the source.

What was measured:
[1] = viability of uninfected HEp-2 cells – cell-based, HTS, cytotoxicity control for RSV inhibitor project, dose response (AID 2410); type: functional; details: human respiratory syncytial virus
[2] = biological target: T1, Replicative DNA helicase DnaB (Mycobacterium tuberculosis, UniProt P9WMR3); experiment: DnaB intein splicing inhibitors, dose response, biochemical, cell-free fluorescence (AID 449749); type: functional
T1 sequence (P9WMR3 whole entry): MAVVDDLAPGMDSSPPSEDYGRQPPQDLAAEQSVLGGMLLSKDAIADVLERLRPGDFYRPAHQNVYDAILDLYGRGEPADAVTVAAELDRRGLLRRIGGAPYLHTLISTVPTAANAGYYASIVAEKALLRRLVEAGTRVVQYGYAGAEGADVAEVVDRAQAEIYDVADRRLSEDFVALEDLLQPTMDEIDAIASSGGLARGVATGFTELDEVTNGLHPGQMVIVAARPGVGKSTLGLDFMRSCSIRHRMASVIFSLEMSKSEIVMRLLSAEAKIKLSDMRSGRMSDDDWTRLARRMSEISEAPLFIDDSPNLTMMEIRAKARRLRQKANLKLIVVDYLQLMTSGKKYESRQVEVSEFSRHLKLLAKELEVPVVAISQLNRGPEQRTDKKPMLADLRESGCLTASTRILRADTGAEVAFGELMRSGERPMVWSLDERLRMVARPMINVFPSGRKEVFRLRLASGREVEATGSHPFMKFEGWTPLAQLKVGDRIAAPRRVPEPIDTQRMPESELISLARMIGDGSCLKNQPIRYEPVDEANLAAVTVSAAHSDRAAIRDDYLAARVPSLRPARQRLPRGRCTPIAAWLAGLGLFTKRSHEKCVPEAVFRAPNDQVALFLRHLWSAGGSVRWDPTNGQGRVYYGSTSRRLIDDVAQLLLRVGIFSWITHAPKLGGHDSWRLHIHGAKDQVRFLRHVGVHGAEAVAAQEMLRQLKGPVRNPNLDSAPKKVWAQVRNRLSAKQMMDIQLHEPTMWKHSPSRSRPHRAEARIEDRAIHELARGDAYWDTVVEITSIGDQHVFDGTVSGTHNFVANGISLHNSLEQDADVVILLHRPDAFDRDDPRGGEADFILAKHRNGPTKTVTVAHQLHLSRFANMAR

Protein RecA = biological target: T2, Protein RecA (Mycobacterium tuberculosis, UniProt P9WHJ3); experiment: Fluorescence Cell-Free Homogeneous Dose Retest to Identify Inhibitors of RecA-Intein Splicing Activity. [Related pubchem assays (depositor defined):AID2097, AID2223, AID489010, AID492950]; type: functional
T2 sequence (P9WHJ3 whole entry): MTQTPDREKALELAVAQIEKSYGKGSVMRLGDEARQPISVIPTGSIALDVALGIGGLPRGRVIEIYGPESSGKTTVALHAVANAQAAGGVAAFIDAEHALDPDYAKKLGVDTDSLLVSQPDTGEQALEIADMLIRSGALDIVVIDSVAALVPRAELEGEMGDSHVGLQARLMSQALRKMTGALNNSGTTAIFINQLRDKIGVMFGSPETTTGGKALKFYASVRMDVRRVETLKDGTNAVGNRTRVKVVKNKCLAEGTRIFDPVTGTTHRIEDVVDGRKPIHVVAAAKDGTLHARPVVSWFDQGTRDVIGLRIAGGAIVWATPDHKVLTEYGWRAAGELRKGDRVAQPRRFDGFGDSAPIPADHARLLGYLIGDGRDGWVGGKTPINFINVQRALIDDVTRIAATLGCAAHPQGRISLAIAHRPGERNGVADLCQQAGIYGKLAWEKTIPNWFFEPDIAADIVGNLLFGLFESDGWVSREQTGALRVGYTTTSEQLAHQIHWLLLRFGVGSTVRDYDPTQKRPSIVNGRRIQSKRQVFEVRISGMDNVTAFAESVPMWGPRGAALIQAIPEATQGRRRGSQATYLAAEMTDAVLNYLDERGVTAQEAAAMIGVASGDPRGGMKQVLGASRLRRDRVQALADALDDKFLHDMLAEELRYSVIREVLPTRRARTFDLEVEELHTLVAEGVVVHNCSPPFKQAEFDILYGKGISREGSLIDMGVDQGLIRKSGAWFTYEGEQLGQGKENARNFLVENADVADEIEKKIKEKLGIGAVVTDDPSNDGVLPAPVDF

Protein skinhead-1 = biological target: T3, Protein skinhead-1 (Caenorhabditis elegans, UniProt P34707); type: functional
T3 sequence (P34707 whole entry): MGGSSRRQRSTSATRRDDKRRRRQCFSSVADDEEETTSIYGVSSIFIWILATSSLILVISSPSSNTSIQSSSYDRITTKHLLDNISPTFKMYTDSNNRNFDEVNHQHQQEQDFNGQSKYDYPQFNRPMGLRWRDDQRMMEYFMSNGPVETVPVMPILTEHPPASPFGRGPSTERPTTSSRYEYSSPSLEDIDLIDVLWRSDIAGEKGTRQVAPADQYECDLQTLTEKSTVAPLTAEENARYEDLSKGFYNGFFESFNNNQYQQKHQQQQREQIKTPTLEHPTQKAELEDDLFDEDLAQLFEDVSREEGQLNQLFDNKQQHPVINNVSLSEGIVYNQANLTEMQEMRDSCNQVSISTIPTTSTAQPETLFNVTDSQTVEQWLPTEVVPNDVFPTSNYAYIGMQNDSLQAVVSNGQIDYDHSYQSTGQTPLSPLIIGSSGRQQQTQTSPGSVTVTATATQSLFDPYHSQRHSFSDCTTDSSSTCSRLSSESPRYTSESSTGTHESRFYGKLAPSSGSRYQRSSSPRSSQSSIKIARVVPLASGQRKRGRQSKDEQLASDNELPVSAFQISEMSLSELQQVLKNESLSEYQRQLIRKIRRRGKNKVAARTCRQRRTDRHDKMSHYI

[3] = biological target: T4, Heat shock factor protein 1 (Mus musculus, UniProt P38532); experiment: enhancement of HSF1-driven luciferase signal – cell-based, NIH3T3, luminescence, dose retest, confirmation (AID 435004); type: functional;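 note: stress induced by proteasome inhibitor MG132 added 30 min after compound; luciferase reporter driven by HSF1 response element in NIH3T3 cells; actives raise luminescence as potentiators of the MG132 stress response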
T4 sequence (P38532 whole entry): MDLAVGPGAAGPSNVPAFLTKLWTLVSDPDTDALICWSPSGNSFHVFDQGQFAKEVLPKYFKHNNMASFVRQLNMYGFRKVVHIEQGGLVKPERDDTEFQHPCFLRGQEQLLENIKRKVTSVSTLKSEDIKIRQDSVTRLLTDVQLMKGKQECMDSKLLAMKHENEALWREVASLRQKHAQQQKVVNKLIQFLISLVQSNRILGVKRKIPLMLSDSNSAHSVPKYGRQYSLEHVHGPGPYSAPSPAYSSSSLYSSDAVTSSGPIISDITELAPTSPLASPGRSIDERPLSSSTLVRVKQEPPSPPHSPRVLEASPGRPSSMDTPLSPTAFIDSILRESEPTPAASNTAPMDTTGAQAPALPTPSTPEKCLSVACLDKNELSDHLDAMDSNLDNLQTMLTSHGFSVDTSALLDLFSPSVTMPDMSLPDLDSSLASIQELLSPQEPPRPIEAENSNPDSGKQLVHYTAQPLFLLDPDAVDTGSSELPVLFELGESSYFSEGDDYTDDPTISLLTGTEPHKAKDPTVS

[4] = biological target: T5, Microphthalmia-associated transcription factor (Homo sapiens, UniProt O75030); experiment: reducers of TRPM1 reporter luminescence, concentration series – cell-based, SK-MEL-5, cherry-picked, set 3, MITF inhibitor project, dose response (AID 493073); type: functional;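 note: SK-MEL-5 melanoma cells with luciferase driven by the MITF target TRPM1 promoter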
T5 sequence (O75030 whole entry): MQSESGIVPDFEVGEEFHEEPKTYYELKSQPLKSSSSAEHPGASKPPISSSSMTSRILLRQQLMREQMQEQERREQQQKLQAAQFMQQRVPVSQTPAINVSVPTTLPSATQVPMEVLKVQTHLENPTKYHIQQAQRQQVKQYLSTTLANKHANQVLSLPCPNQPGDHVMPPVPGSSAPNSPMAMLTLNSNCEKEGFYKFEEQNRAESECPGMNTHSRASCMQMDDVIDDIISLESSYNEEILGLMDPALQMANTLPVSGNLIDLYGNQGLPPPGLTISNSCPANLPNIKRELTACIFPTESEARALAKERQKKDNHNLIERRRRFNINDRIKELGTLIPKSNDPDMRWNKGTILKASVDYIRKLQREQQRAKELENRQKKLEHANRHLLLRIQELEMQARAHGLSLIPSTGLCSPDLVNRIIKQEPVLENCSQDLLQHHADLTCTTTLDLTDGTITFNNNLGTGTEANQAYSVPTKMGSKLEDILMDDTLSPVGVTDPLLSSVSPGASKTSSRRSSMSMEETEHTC

[5] = biological target: Induced myeloid leukemia cell differentiation protein Mcl-1 (Homo sapiens, UniProt Q07820); type: functional
Induced myeloid leukemia cell differentiation protein Mcl-1, sequence (Q07820 whole entry): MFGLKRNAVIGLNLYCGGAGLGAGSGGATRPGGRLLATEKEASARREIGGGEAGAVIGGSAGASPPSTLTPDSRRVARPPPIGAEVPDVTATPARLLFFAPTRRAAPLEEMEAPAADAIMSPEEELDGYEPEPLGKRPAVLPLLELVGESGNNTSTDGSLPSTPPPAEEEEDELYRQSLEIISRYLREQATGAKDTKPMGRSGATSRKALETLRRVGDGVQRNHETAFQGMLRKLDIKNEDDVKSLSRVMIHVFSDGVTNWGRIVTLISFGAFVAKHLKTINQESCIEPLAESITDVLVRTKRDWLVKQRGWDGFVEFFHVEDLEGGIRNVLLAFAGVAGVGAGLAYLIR

[6] = Trypanosoma cruzi growth suppression in host cells – NIH3T3 host cells, beta-gal luminescence, confirmation (AID 2044); type: functional, cell-based;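 note: intracellular parasites grown in NIH/3T3 mouse fibroblasts as host cells; luminescent beta-galactosidase reporter signal from transgenic T. cruzi replicating inside host cells; inhibitors lower the luminescence signal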
[7] = NIH3T3 cell viability loss – ATP luminescence, mouse fibroblasts, counter-screen, dose response (AID 2010); type: functional, cell-based;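 note: cells exposed to compound for about 90 hours before reading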
[8] = biological target: Luciferin 4-monooxygenase (Photinus pyralis, UniProt P08659); experiment: inhibition of purified Photinus pyralis luciferase – biochemical, luminescence, dose response (AID 1891)
Luciferin 4-monooxygenase, sequence (P08659 whole entry): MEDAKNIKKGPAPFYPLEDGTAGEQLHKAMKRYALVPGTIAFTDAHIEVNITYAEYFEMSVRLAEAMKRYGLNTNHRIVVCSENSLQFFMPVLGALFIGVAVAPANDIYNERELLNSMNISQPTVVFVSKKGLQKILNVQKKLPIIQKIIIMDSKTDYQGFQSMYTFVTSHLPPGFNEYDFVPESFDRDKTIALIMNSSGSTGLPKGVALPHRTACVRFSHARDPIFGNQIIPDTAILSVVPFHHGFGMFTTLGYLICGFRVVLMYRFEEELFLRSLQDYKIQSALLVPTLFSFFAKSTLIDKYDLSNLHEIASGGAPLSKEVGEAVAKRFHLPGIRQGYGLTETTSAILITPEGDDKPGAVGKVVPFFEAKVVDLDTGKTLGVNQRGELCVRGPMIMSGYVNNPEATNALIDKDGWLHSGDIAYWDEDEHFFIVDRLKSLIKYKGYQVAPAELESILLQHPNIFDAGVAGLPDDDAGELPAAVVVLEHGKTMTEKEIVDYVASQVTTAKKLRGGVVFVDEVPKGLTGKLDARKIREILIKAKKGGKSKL

[9] = Luminescence Cell-Based Dose Confirmation HTS to Identify Inhibitors of Platelet Dense Granule Release. [Related pubchem assays: 1663 (Primary HTS), 1678 (Summary of Project)]; type: functional
[10] = biological target: T6, Calpain-2 catalytic subunit (Sus scrofa, UniProt P43367); experiment: m-calpain protease blockers, concentration series – biochemical, fluorogenic peptide substrate, dose response (AID 1420); type: functional
T6 sequence (P43367 whole entry): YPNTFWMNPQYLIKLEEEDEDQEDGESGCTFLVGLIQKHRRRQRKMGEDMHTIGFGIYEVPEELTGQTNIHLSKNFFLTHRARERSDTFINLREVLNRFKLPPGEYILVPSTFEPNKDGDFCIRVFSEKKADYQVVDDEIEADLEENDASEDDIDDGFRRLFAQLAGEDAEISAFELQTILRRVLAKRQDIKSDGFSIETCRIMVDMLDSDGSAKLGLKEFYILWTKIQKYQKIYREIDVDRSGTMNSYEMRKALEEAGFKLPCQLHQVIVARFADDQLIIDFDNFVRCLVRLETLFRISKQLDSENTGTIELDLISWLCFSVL

[11] = biological target: T7, Rac GTPase-activating protein 1 (Homo sapiens, UniProt Q9H0H5); experiment: blockers of MgcRacGAP-driven Rac1 GTP hydrolysis – biochemical, ADP Hunter fluorescence, primary and confirmatory, confirmation (AID 624330); type: functional
T7 sequence (Q9H0H5 whole entry): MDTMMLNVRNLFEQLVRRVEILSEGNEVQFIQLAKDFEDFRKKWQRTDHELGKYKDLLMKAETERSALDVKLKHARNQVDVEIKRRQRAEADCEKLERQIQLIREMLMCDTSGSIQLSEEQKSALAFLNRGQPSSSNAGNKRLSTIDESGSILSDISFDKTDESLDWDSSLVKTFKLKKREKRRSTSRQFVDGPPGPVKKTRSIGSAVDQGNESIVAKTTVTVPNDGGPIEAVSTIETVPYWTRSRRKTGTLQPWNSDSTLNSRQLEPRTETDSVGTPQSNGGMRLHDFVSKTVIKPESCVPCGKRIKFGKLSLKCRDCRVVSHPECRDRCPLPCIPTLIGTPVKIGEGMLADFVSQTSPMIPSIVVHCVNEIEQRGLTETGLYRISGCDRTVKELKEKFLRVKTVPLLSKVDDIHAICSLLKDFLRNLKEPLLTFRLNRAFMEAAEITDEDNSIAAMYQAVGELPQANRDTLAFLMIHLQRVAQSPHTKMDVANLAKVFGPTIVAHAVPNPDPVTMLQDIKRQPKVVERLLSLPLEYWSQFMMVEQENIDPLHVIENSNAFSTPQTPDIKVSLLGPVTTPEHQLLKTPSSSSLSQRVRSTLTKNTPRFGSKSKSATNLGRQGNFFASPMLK

SMILES	CC50 [1]	IC50 (Protein skinhead-1)	also measured
CCOC(=O)C1Nc2c(F)cc(C)cc2C2c3ccccc3CC12 (stereo not given)	31.9 µM (active)	–	AC50 [2]: 11.4 µM (active); EC50 (Protein RecA): 36 µM (active)
CCOC(=O)c1c(N)sc2c1CCSC2	–	> 100 µM (inactive)	–
COc1cc2c(cc1OC)C(C)N(S(=O)(=O)c1cnc(Cl)c(Cl)c1)CC2 (stereo not given)	–	–	EC50 [3]: 29.3 µM (active); AC50 [4]: 12.1 µM (active)
COc1ccc(-c2csc(Nc3ccccc3)n2)cc1	–	> 100 µM (inactive)	IC50 [5]: 10.3 µM (not active)
COc1ccc(NC(=O)Nc2ccc(N3CCOCC3)c3nonc23)c(OC)c1	–	> 100 µM (inactive)	–
CCCNC(=O)COC(=O)c1[nH]c(C)c(C(=O)OCC)c1C	–	> 100 µM (inactive)	–
O=C(CSc1nc2ccccc2c(=O)n1-c1ccccc1)N1CCCc2ccccc21	39 µM (active)	–	–
O=C(CN1C(=O)CCS(=O)(=O)c2ccccc21)NCc1ccccc1	–	> 100 µM (inactive)	–
O=C(Nc1nc(-c2ccccc2)cs1)c1ccccc1F	–	> 100 µM (inactive)	–
CCOc1ccc2nc(NC(=O)C3CCCN(S(=O)(=O)c4cccs4)C3)sc2c1 (stereo not given)	24.3 µM (active)	–	EC50 [6]: 2.51 µM (active); EC50 [7]: > 60 µM (not active)
C#Cc1cccc(-n2nnc(C(=O)OC)c2-c2ccccc2)c1	–	> 100 µM (inactive)	–
Cc1cccc(-n2ncc3c(NC(C)C)ncnc32)c1	34.4 µM (active)	–	–
O=C(CCCl)Nc1nc2c(s1)CCc1ccccc1-2	4.52 µM (active)	–	EC50 [3]: 22.2 µM (active)
C#CCCc1ccccc1/C=[N+](/C)[O-]	–	–	AC50 [4]: 9.4 µM (active)
Brc1ccc(OCc2cn3ccccc3n2)cc1	–	41.9 µM (active)	EC50 [3]: > 260 µM (inactive)
COC(=O)/C=C1\SC(N/N=C/c2ccc(Cl)cc2)=NC1=O	23.5 µM (active)	–	EC50 [8]: 41.5 µM (active); EC50 [9]: > 112 µM (not active)
COc1cc(/C=N/NP(=S)(c2ccccc2)c2ccccc2)ccc1O	30.3 µM (active)	–	IC50 [10]: 14.2 µM (not active); IC50 [11]: 109 µM (active)
C(=C1c2ccccc2-c2ccccc21)c1ccncc1	–	> 100 µM (inactive)	–
